# Measured values from US20250197384A1, “AZOLE COMPOUND AND ANTIFUNGAL AGENT” (NIHON NOHYAKU CO., LTD., priority 2022, published 2025).
# What was measured:
# Assay type in all cases: cell-based
# [1] = test system: Candida albicans NBRC1270; experiment: In vitro anti-Candida activity test; details: for minimum inhibitory concentration against various fungi (MIC) C. albicans / MIC: Table 22, 35° C. for 24 hr, alamar Blue, minimum concentration showing 80% or more inhibition; for MIC: Candida albicans, read-out: minimum inhibitory concentration against various fungi (MIC) C. albicans; for C. albicans (MIC): 80% or more inhibition, unit inferred
# Description: Candida albicans NBRC1270 was used as the strain. The test fungi were cultured on a Sabouraud dextrose agar slant medium at 35° C. for 24 hr, and then suspended in sterilized saline. The number of cells in this suspension was counted using a hemocytometer, and the same suspension was adjusted to a cell concentration of 1.5×10^5 cells/mL, and this was used as an inoculum. Each compound was dissolved in dimethyl sulfoxide to a predetermined concentration, and diluted 50-fold with 0.165 M MOPS buffered RPMI 1640 liquid medium, and each diluted solution was dispensed into a 96-well microplate by each 100 μL. The inoculum was diluted 50-fold with 0.165 M MOPS buffered RPMI 1640 liquid medium containing 20% alamar Blue™, and the diluted solution was inoculated into the 96-well microplate containing the compound by each 100 μL (final inoculum amount 1.5×10^3 cells/mL). After static culture at 35° C. for 24 hr, the degree of color development of the alamar Blue™ was measured using a microplate reader (O.D. 570-595 nm), and the minimum concentration showing 80% or more inhibition was defined as the minimum inhibitory concentration (MIC).
# [2] = test system: Trichophyton rubrum NBRC6203; experiment: In vitro anti-tinea fungus activity test (T. rubrum); details: Table 22, 27° C. for 5 days, alamar Blue, minimum concentration showing 80% or more inhibition; for MIC: Trichophyton rubrum, 120 h, read-out: minimum inhibitory concentration against various fungi (MIC) T. rubrum
# Description: (§1) Trichophyton rubrum NBRC6203 and Trichophyton mentagrophytes TIMM2789 were used as the strains. The test fungi were cultured on a Sabouraud dextrose agar slant medium at 27° C. for 10-13 days, and then suspended in sterilized saline. The number of cells in this suspension was counted using a hemocytometer, and the same suspension was adjusted to a cell concentration of 2×10^6 conidia/mL, and this was used as an inoculum. Each compound was dissolved in dimethyl sulfoxide to a predetermined concentration, and diluted 50-fold with 0.165 M MOPS buffered RPMI 1640 liquid medium, and each diluted solution was dispensed into a 96-well microplate by each 100 μL. The inoculum was diluted 50-fold with 0.165 M MOPS buffered RPMI 1640 liquid medium containing 20% alamar Blue™, and the diluted solution was inoculated into the 96-well microplate containing the compound by each 100 μL (final inoculum amount 2×10^4 conidia/mL). After static culture at 27° C. for 3 days (Trichophyton mentagrophytes) or for 5 days (Trichophyton rubrum), the degree of color development of the alamar Blue™ was measured using a microplate reader (O.D. 570-595 nm), and the minimum concentration showing 80% or more inhibition was defined as the minimum inhibitory concentration (MIC).
# [3] = test system: Aspergillus fumigatus TIMM0063; experiment: In vitro anti-Aspergillus activity test; details: for minimum inhibitory concentration against various fungi (MIC) A. fumigatus / MIC: Table 22, 35° C. for 48 hr, alamar Blue, minimum concentration showing 80% or more inhibition; for MIC: Aspergillus fumigatus, read-out: minimum inhibitory concentration against various fungi (MIC) A. fumigatus; for A. fumigatus (MIC): 80% or more inhibition, unit inferred
# Description: Aspergillus fumigatus TIMM0063 was used as the strain. The test fungi were cultured on a Potato dextrose agar slant medium at 35° C. for 4 days, and then sterilized saline containing 0.1% (v/v) Tween 80 was added to release the conidia. This conidial suspension was filtered through sterile gauze, and the number of conidia was counted using a hemocytometer. The same solution was adjusted to a conidial concentration of 1×10^6 conidia/mL, and this was used as an inoculum. Each compound was dissolved in dimethyl sulfoxide to a predetermined concentration, and diluted 50-fold with 0.165 M MOPS buffered RPMI 1640 liquid medium, and each diluted solution was dispensed into a 96-well microplate by each 100 μL. The inoculum was diluted 50-fold with 0.165 M MOPS buffered RPMI 1640 liquid medium containing 20% alamar Blue™, and the diluted solution was inoculated into the 96-well microplate containing the compound by each 100 μL (final inoculum amount 1.0×10^4 conidia/mL). After static culture at 35° C. for 48 hr, the degree of color development of the alamar Blue™ was measured using a microplate reader (O.D. 570-595 nm), and the minimum concentration showing 80% or more inhibition was defined as the minimum inhibitory concentration (MIC).
# [4] = test system: Trichophyton mentagrophytes TIMM2789; experiment: In vitro anti-tinea fungus activity test (T. mentagrophytes); details: Table 22, 27° C. for 3 days, alamar Blue, minimum concentration showing 80% or more inhibition; for MIC: Trichophyton mentagrophytes, 72 h, read-out: minimum inhibitory concentration against various fungi (MIC) T. mentagrophytes
# Description: as §1
structure (smiles),measurement,setting,value
N#C/C(=C1/SCC(c2ncc(Br)cc2Cl)S1)n1ccnc1 (racemic) [Compound No. 1],minimum inhibitory concentration against various fungi (MIC) C. albicans,[1],100 ng/mL
same,minimum inhibitory concentration against various fungi (MIC) T. rubrum,[2],≤1 ng/mL
same,minimum inhibitory concentration against various fungi (MIC) A. fumigatus,[3],1.3 ng/mL
same,minimum inhibitory concentration against various fungi (MIC) T. mentagrophytes,[4],≤1 ng/mL
N#C/C(=C1/SCC(c2ncc(N)cc2Cl)S1)n1ccnc1 (racemic) [Compound No. 2],minimum inhibitory concentration against various fungi (MIC) C. albicans,[1],1000 ng/mL
same,minimum inhibitory concentration against various fungi (MIC) T. rubrum,[2],10 ng/mL
same,minimum inhibitory concentration against various fungi (MIC) A. fumigatus,[3],10 ng/mL
same,minimum inhibitory concentration against various fungi (MIC) T. mentagrophytes,[4],10 ng/mL
"CCCC1CC(c2cnc(C3CS/C(=C(/C#N)n4ccnc4)S3)c(Cl)c2)=NO1 (stereo not shown) [Compound No. 6, (E)-2-{4-[3-chloro-5-(5-propyl-4,5-dihydroisoxazol-3-yl)pyridin-2-yl]-1,3-dithiolan-2-ylidene}-2-(1H-imidazol-1-yl)acetonitrile]",MIC,[1],10 ng/mL
same,MIC,[2],10 ng/mL
same,MIC,[3],5 ng/mL
same,MIC,[4],10 ng/mL
"CCOC(=O)Nc1cnc(C2CS/C(=C(/C#N)n3cncn3)S2)c(F)c1 (stereo not shown) [Compound No. 10, ethyl (E)-(6-{2-[cyano(1H-1,2,4-triazol-1-yl)methylene]-1,3-dithiolan-4-yl}-5-fluoropyridin-3-yl)carbamate]",MIC,[1],50 ng/mL
same,MIC,[2],10 ng/mL
same,MIC,[3],25 ng/mL
same,MIC,[4],10 ng/mL
"COC(=O)Nc1cnc(C2CS/C(=C(/C#N)n3ccnc3)S2)c(Cl)c1 (stereo not shown) [Compound No. 15, methyl (E)-(5-chloro-6-{2-[cyano(1H-imidazol-1-yl)methylene]-1,3-dithiolan-4-yl}pyridin-3-yl)carbamate]",MIC,[1],2.5 ng/mL
same,MIC,[2],10 ng/mL
same,MIC,[3],5 ng/mL
same,MIC,[4],10 ng/mL
"CCO/N=C/c1cnc(C2CS/C(=C(/C#N)n3ccnc3)S2)c(Cl)c1 (stereo not shown) [Compound No. 25, (E)-2-(4-{3-chloro-5-[(E)-(ethoxyimino)methyl]pyridin-2-yl}-1,3-dithiolan-2-ylidene)-2-(1H-imidazol-1-yl)acetonitrile]",MIC,[1],0.6 ng/mL
same,MIC,[2],≤ 1 ng/mL
same,MIC,[3],2.5 ng/mL
same,MIC,[4],≤ 1 ng/mL
"N#C/C(=C1/SCC(c2ncc(/C(N)=N/OCc3ccccc3)cc2Cl)S1)n1ccnc1 (stereo not shown) [Compound No. 27, (Z)—N′-(benzyloxy)-5-chloro-6-{(E)-2-[cyano(1H-imidazol-1-yl)methylene]-1,3-dithiolan-4-yl}nicotinimidamide]",MIC,[1],1.3 ng/mL
same,MIC,[2],≤ 1 ng/mL
same,MIC,[3],5 ng/mL
same,MIC,[4],≤ 1 ng/mL
C=Cc1cnc(C2CS/C(=C(/C#N)n3ccnc3)S2)c(Cl)c1 (stereo not shown) [compound 3],minimum inhibitory concentration against various fungi (MIC) C. albicans,[1],100 ng/mL
same,minimum inhibitory concentration against various fungi (MIC) T. rubrum,[2],≤1 ng/mL
same,minimum inhibitory concentration against various fungi (MIC) A. fumigatus,[3],2.5 ng/mL
same,minimum inhibitory concentration against various fungi (MIC) T. mentagrophytes,[4],≤1 ng/mL
N#CCOc1cnc(C2CS/C(=C(/C#N)n3ccnc3)S2)c(Cl)c1 (stereo not shown) [compound 4],minimum inhibitory concentration against various fungi (MIC) C. albicans,[1],1000 ng/mL
same,minimum inhibitory concentration against various fungi (MIC) T. rubrum,[2],10 ng/mL
same,minimum inhibitory concentration against various fungi (MIC) A. fumigatus,[3],5 ng/mL
same,minimum inhibitory concentration against various fungi (MIC) T. mentagrophytes,[4],10 ng/mL
"N#C/C(=C1/SCC(c2ncc(COC3CCCCO3)cc2Cl)S1)n1ccnc1 (stereo not shown) [compound 28, (E)-2-[4-(3-chloro-5-{[(tetrahydro-2H-pyran-2-yl)oxy]methyl}pyridin-2-yl)-1,3-dithiolan-2-ylidene]-2-(1H-imidazol-1-yl)acetonitrile]",C. albicans (MIC),"[1]; Table 23, 35° C. for 24 hr",10 ng/mL
same,A. fumigatus (MIC),"[3]; Table 23, 35° C. for 48 hr",10 ng/mL
N#C/C(=C1/SCC(c2ncc(NC(=O)OCCCl)cc2Cl)S1)n1ccnc1 (stereo not shown) [compound 66],C. albicans (MIC),"[1]; Table 23, 35° C. for 24 hr",5 ng/mL
same,A. fumigatus (MIC),"[3]; Table 23, 35° C. for 48 hr",10 ng/mL
N#C/C(=C1/SCC(c2ncc(NC(=O)OCCCCl)cc2Cl)S1)n1ccnc1 (stereo not shown) [compound 67],C. albicans (MIC),"[1]; Table 23, 35° C. for 24 hr",2.5 ng/mL
same,A. fumigatus (MIC),"[3]; Table 23, 35° C. for 48 hr",10 ng/mL
N#C/C(=C1/SCC(c2ncc(NC(=O)OCc3ccc(F)cn3)cc2Cl)S1)n1cncn1 (stereo not shown) [compound 73],C. albicans (MIC),"[1]; Table 23, 35° C. for 24 hr",10 ng/mL
same,A. fumigatus (MIC),"[3]; Table 23, 35° C. for 48 hr",10 ng/mL
N#C/C(=C1/SCC(c2ncc(NC(=O)OCc3ccc(F)nc3)cc2Cl)S1)n1cncn1 (stereo not shown) [compound 74],C. albicans (MIC),"[1]; Table 23, 35° C. for 24 hr",10 ng/mL
same,A. fumigatus (MIC),"[3]; Table 23, 35° C. for 48 hr",10 ng/mL
CCOC(=O)Nc1cnc([C@@H]2CS/C(=C(/C#N)n3cncn3)S2)c(Cl)c1 [compound 79],C. albicans (MIC),"[1]; Table 23, 35° C. for 24 hr",5 ng/mL
same,A. fumigatus (MIC),"[3]; Table 23, 35° C. for 48 hr",5 ng/mL
N#C/C(=C1/SC[C@@H](c2ncc(NC(=O)OCC3CC3)cc2Cl)S1)n1cncn1 [compound 92],C. albicans (MIC),"[1]; Table 23, 35° C. for 24 hr",0.63 ng/mL
same,A. fumigatus (MIC),"[3]; Table 23, 35° C. for 48 hr",2.5 ng/mL
CCCOC(=O)Nc1cnc([C@@H]2CS/C(=C(/C#N)n3cncn3)S2)c(Cl)c1 [compound 94],C. albicans (MIC),"[1]; Table 23, 35° C. for 24 hr",2.5 ng/mL
same,A. fumigatus (MIC),"[3]; Table 23, 35° C. for 48 hr",2.5 ng/mL
N#C/C(=C1/SC[C@@H](c2ncc(NC(=O)OCc3ccccc3)cc2Cl)S1)n1cncn1 [compound 100],C. albicans (MIC),"[1]; Table 23, 35° C. for 24 hr",0.63 ng/mL
same,A. fumigatus (MIC),"[3]; Table 23, 35° C. for 48 hr",2.5 ng/mL
N#C/C(=C1/SC[C@@H](c2ncc(NC(=O)OCc3ccccc3)cc2F)S1)n1cncn1 [compound 106],C. albicans (MIC),"[1]; Table 23, 35° C. for 24 hr",1.25 ng/mL
same,A. fumigatus (MIC),"[3]; Table 23, 35° C. for 48 hr",5 ng/mL
CCCOC(=O)Nc1cnc([C@@H]2CS/C(=C(/C#N)n3cncn3)S2)c(F)c1 [compound 110],C. albicans (MIC),"[1]; Table 23, 35° C. for 24 hr",10 ng/mL
same,A. fumigatus (MIC),"[3]; Table 23, 35° C. for 48 hr",5 ng/mL
N#C/C(=C1/SC[C@@H](c2ncc(NC(=O)OCC3CC3(F)F)cc2Cl)S1)n1cncn1 (stereo partly shown) [compound 130],C. albicans (MIC),"[1]; Table 24, 35° C. for 24 hr",2.5 ng/mL
same,A. fumigatus (MIC),"[3]; Table 24, 35° C. for 48 hr",5 ng/mL
N#C/C(=C1/SC[C@@H](c2ncc(NC(=O)OCC3CC3(F)F)cc2F)S1)n1cncn1 (stereo partly shown) [compound 131],C. albicans (MIC),"[1]; Table 24, 35° C. for 24 hr",10 ng/mL
same,A. fumigatus (MIC),"[3]; Table 24, 35° C. for 48 hr",10 ng/mL
N#C/C(=C1/SC[C@@H](c2ncc(NC(=O)OCC3(F)CC3)cc2Cl)S1)n1cncn1 [compound 155],C. albicans (MIC),"[1]; Table 25, 35° C. for 24 hr",2.5 ng/mL
same,A. fumigatus (MIC),"[3]; Table 25, 35° C. for 48 hr",10 ng/mL
